Results on 52 compounds are retold here after the Deep4Chem optical property database.

The series can be described thus: photoluminescence quantum yield (fraction); solvent given as SMILES.

SMILES strings stand for the structures.

As for `COC(=O)/C=C/C1=CC2=C(c3c(C)cc(C)cc3C)c3cccn3[B-](F)(F)[N+]2=C1`, the photoluminescence quantum yield (in ClCCl) was found to be 0.34.

For `CSC1=C(C)C2=C(c3ccc(C)cc3)c3c(C)c(Cl)c(C)n3[B-](F)(F)[N+]2=C1C`, the photoluminescence quantum yield (in C1CCOC1) was found to be 0.07. `COc1cc(C(=O)O)cc(OC)c1O` had a photoluminescence quantum yield (in O) of 0.009. `COC(=O)COc1ccc(/C=C/C2=[N+]3C(=C(c4ccc(N5CCCCC5)cc4)c4c(C)cc(C)n4[B-]3(F)F)C(C)=C2)cc1` returned a photoluminescence quantum yield (in CO) of 0.87. The compound `CCCCCCCCC1(CCCCCCCC)c2cc(-c3ccc(C#N)cc3)ccc2-c2ccc(-c3ccc(C#N)cc3)cc21` registered a photoluminescence quantum yield (in ClC(Cl)Cl) of 0.95. For the setting “in ClCCl”, `C[Si]1(C)c2ccc(-c3ccccc3)cc2C=Cc2cc(-c3ccccc3)ccc21` returned a photoluminescence quantum yield of 0.38. With `COc1ccc(C#Cc2nc(C#Cc3ccc(OC)cc3)c(C#Cc3ccc(OC)cc3)c(C#Cc3ccc(OC)cc3)c2C#Cc2ccc(OC)cc2)cc1`, the photoluminescence quantum yield (in ClCCl) was found to be 0.81. For `Cc1ccc2nc3c(=O)[nH]c(=O)[nH]c3nc2c1`, the photoluminescence quantum yield (in CC#N) came out at 0.017 and the photoluminescence quantum yield (in ClCCCl) came out at 0.024.

Turning to `CCn1c2ccccc2c2cc(C#Cc3cc(C#Cc4ccc5c(c4)c4ccccc4n5CC)nc(SC)n3)ccc21`, the photoluminescence quantum yield is 0.61 (in C1CCOC1); 0.62 (in CCOC(C)=O); 0.56 (in CN(C)C=O); 0.53 (in Cc1ccccc1); 0.64 (in ClCCl). The compound `CC(C)(C)c1ccc(N(c2ccc(S(=O)(=O)c3ccc(S(=O)(=O)c4ccc(N(c5ccc(C(C)(C)C)cc5)c5ccccc5C(C)(C)C)cc4)cc3)cc2)c2ccccc2C(C)(C)C)cc1` displayed a photoluminescence quantum yield (in Cc1ccccc1) of 0.8.

In the case of `Cc1cccc(Nc2ccccc2C(=O)O)c1C`, the photoluminescence quantum yield by setting is: (in C1CCCCC1) 0.0049; (in C1CCOC1) 0.0074; (in C1COCCO1) 0.0035; (in CC#N) 0.0013; (in CCOC(C)=O) 0.0032; (in CN(C)C=O) 0.0013. With `O=c1oc2ccccc2cc1-c1cc2ccccc2o1`, the photoluminescence quantum yield came out at 0.75 (in CC#N); 0.79 (in CCOC(C)=O); 0.99 (in CS(C)=O); 0.88 (in Cc1ccccc1); 0.15 (in O). `C(#Cc1cc2ccc3cc(C#Cc4ccccc4)cc4ccc(c1)c2c34)c1ccccc1` displayed a photoluminescence quantum yield (in Cc1ccccc1) of 0.29.

Take `CCN(CC)c1ccc2cc(C#N)c(=N)oc2c1`: the photoluminescence quantum yield (in ClCCl) was determined as 0.84.

Under “in ClCCl”, `CC(C)[Si](C#Cc1c2cc3ccccc3cc2c(C#Cc2ccccc2)c2cc3ccccc3cc12)(C(C)C)C(C)C` returned a photoluminescence quantum yield of 0.12. Take `COc1c2ccccc2c(OC)c2c1c1c(C)ccc(OC)c1n2C`: the photoluminescence quantum yield (in C1CCCCC1) worked out at 0.23, the photoluminescence quantum yield (in CC#N) was determined as 0.26, the photoluminescence quantum yield (in CO) is 0.25 and the photoluminescence quantum yield (in ClCCl) amounted to 0.31. Turning to `O=C1c2cccc3c(-n4c5ccccc5c5ccccc54)ccc(c23)C(=O)N1c1ccccc1`, the photoluminescence quantum yield reads like this: (in C1CCOC1) 0.032; (in CCCCCC) 0.887; (in ClC(Cl)Cl) 0.198; (in ClCCl) 0.032. In the case of `COc1ccc(-c2cc(C)nc(-c3ccc(-n4c5ccccc5c5ccccc54)cc3)n2)cc1`, the photoluminescence quantum yield runs as follows: (in C1CCOC1) 0.47; (in CN(C)C=O) 0.66; (in Cc1ccccc1) 0.34; (in ClC(Cl)Cl) 0.68. In turn, `N#Cc1cc(-n2c3ccccc3c3ncccc32)c(-n2c3ccccc3c3ncccc32)cc1C#N` showed a photoluminescence quantum yield (in c1cc(-n2c3ccccc3c3ccccc32)cc(-n2c3ccccc3c3ccccc32)c1) of 0.93. For the compound `CC(C)c1ccc2ccc3c(C(C)C)ccc4ccc1c2c43`, the photoluminescence quantum yield (in CCCCCC) was found to be 0.45, the photoluminescence quantum yield (in CO) worked out at 0.55 and the photoluminescence quantum yield (in ClCCl) was 0.39. In turn, `Cc1cc(C)c(B(c2ccc(-c3ccc4ccc5cccc6ccc3c4c56)cc2)c2c(C)cc(C)cc2C)c(C)c1` gave a photoluminescence quantum yield (in Cc1ccccc1) of 0.61. `Cc1cccn2c1cc1c3ccccc3nc(-c3ccco3)c12` showed a photoluminescence quantum yield (in CS(C)=O) of 0.42. The compound `COC(=O)c1[nH]c(-c2ccccc2)c2nnc3c4ccccc4oc3c12` had a photoluminescence quantum yield (in ClCCl) of 0.167. As for `CC(C)(C)c1ccc(C#Cc2cc(C#Cc3ccc(C(C)(C)C)cc3)c(C#Cc3ccc(C(C)(C)C)cc3)c(C#Cc3ccc(C(C)(C)C)cc3)c2C#Cc2ccc(C(C)(C)C)cc2)cc1`, the photoluminescence quantum yield (in ClCCl) was determined as 0.41. For `c1ccc2c(c1)c1ccccc1c1ccccc21`, the photoluminescence quantum yield (in ClCCl) stood at 0.02. As for `c1ccc(-c2ccc(-c3ccccc3)cc2)cc1`, the photoluminescence quantum yield (in C1COCCO1) is 0.55. For the setting “in ClC(Cl)Cl”, `Cc1ccc(-n2c3ccccc3c3cc(-c4ccc5[n+](c4)[B-](F)(F)n4c-5nc5c6ccccc6c6ccccc6c54)ccc32)cc1` displayed a photoluminescence quantum yield of 0.957. Compound `CCN(CC)c1ccc2cc(/C=C3\CCCc4c3[o+]c3cc(N(CC)CC)ccc3c4-c3ccccc3C(=O)O)c(=O)oc2c1` gave a photoluminescence quantum yield (in ClCCl) of 0.07.

Regarding `COc1ccc(C2=C(c3ccc(OC)cc3)C(c3ccccc3)=[N+]3C2=Nc2c(-c4ccc(OC)cc4)c(-c4ccc(OC)cc4)c(-c4ccccc4)n2[B-]3(F)F)cc1`, the photoluminescence quantum yield (in Cc1ccccc1) amounted to 0.01. `N#C/C(=C\c1ccc(C=C(c2ccccc2)c2ccccc2)cc1)c1ccc([N+](=O)[O-])cc1`: the photoluminescence quantum yield (in C1CCOC1) was found to be 0.046. Compound `O=c1cc2cc(O)c3cc(O)cc4ccc(o1)c2c43` gave a photoluminescence quantum yield (in CC1CCCO1) of 0.36. As to `N#Cc1ccc(C2=CC3=c4cc(-c5ccc(C#N)cc5)c5nc(C(F)(F)C(F)(F)C(F)(F)F)nc6c(-c7ccc(C#N)cc7)cc(c4c65)C4=CC(c5ccc(C#N)cc5)=C5N=C(C(F)(F)C(F)(F)C(F)(F)F)N=C2C5C43)cc1` (centres undefined), the photoluminescence quantum yield (in C1CCOC1) amounted to 1.

As to `CCOC(=O)c1cc(C(=O)OCC)c2ccc(O)cc2n1`, the photoluminescence quantum yield (in CCO) amounted to 0.007.

Take `CC1(C)c2ccccc2N2c3ccccc3C3(c4cc(C#N)ccc4-c4ccc(C#N)cc43)c3cccc1c32`: the photoluminescence quantum yield (in Cc1ccccc1) was found to be 0.71. In turn, `N#Cc1cccc2c(N)c(-c3nn([C@H]4C[C@H](O)[C@@H](CO)O4)c4ncnc(N)c34)ccc12` had a photoluminescence quantum yield (in C1COCCO1) of 0.47; a photoluminescence quantum yield (in CC#N) of 0.23; a photoluminescence quantum yield (in CC(C)O) of 0.19; a photoluminescence quantum yield (in CCO) of 0.13; a photoluminescence quantum yield (in CCOC(C)=O) of 0.29; a photoluminescence quantum yield (in CN(C)C=O) of 0.21. The same compound gave a photoluminescence quantum yield (in CO) of 0.07, a photoluminescence quantum yield (in CS(C)=O) of 0.18, a photoluminescence quantum yield (in OCC(O)CO) of 0.12 and a photoluminescence quantum yield (in OCCO) of 0.08. Where the note is “in C1CCCCC1”, `C(#Cc1cnc(C#Cc2ccccc2)nc1)c1ccccc1` displayed a photoluminescence quantum yield of 0.0009. On to `CC1(C)c2ccccc2N(c2ccc3c(c2)C2(c4cc(N5c6ccccc6C(C)(C)c6ccccc65)ccc4-3)c3ccccc3S(=O)(=O)c3ccccc32)c2ccccc21`, for which, where the note is “in c1ccc2c(c1)c1ccccc1n2-c1ccc(N(c2ccc(-n3c4ccccc4c4ccccc43)cc2)c2ccc(-n3c4ccccc4c4ccccc43)cc2)cc1”, the photoluminescence quantum yield turned out to be 0.41.

Take `COc1ccc(C2=C(c3ccc(OC)cc3)C(C)(C)c3ccc4ccccc4c32)cc1`: where the note is “in C1CCCCC1”, the photoluminescence quantum yield was found to be 0.11. Compound `CCOC(=O)c1nn(-c2ccc(OC)cc2)nc1N1CCCC1` yielded a photoluminescence quantum yield (in CC#N) of 0.731. Where the note is “in ClCCl”, `C(=C\c1ncc2ccccc2n1)/c1ccc(N(c2ccccc2)c2ccccc2)cc1` gave a photoluminescence quantum yield of 0.61. Take `C1=Cc2ccccc2C(=Cc2ccc(-c3ccc(C=C4c5ccccc5-c5ccccc54)cc3)cc2)c2ccccc21`: the photoluminescence quantum yield (in C1CCOC1) is 0.00016. Compound `COc1ccc(/C=C(\C)c2nc3ccccc3s2)cc1` registered a photoluminescence quantum yield (in C1CCCCC1) of 0.001. In the case of `CCC1(CC)c2ccccc2-c2c1c1c(c3c2C(CC)(CC)c2cc(N(c4ccccc4)c4ccccc4)ccc2-3)C(CC)(CC)c2cc(N(c3ccccc3)c3ccccc3)ccc2-1`, under “in C1CCOC1”, the photoluminescence quantum yield was 0.36.

Compound `Cc1ccc(-c2ccc(-c3ccc(-c4ccc(C)cc4)cc3/C(=C(/c3ccccc3)c3cc(-c4ccc(C)cc4)ccc3-c3ccc(-c4ccc(C)cc4)cc3)c3ccccc3)cc2)cc1` returned a photoluminescence quantum yield (in C1CCOC1) of 0.3. For `CC[Si](CC)(CC)Oc1cccc(O[Si](CC)(CC)CC)c1-c1c2ccccc2c(-c2c(O[Si](CC)(CC)CC)cccc2O[Si](CC)(CC)CC)c2ccccc12`, the photoluminescence quantum yield (in C1CCCCC1) turned out to be 0.96. In turn, `CCCCCCc1cc2c(s1)-c1sc(CCCCCC)cc1P(c1ccccc1)(c1ccccc1)=[O+][B-]2(c1c(C)cc(C)cc1C)c1c(C)cc(C)cc1C` displayed a photoluminescence quantum yield (in C1CCOC1) of 0.06.

`CCN(CC)c1ccc(-c2nc(Oc3ccc(-c4nc5ccccc5[nH]4)cc3)nc(Oc3ccc(-c4nc5ccccc5[nH]4)cc3)n2)cc1` registered a photoluminescence quantum yield (in CN(C)C=O) of 0.197. For the compound `CC1=[N+]2C(=C(Oc3ccccc3)c3ccc(C)n3[B-]2(F)F)C=C1c1cc2n(c1)[B-](F)(F)[N+]1=CC=CC1=C2c1c(C)cc(C)cc1C`, the photoluminescence quantum yield was determined as 0.89 (in C1CCCCC1) and 0.16 (in CCOC(C)=O). Turning to `COc1ccccc1C1=[N+]2C(=Nc3c(-c4ccccc4)cc(-c4ccccc4OC)n3[B-]2(F)F)C(c2ccccc2)=C1`, where the note is “in Cc1ccccc1”, the photoluminescence quantum yield is 0.07.

In turn, `CC1(C)c2ccccc2N(c2ccccc2)c2ccc(-c3nc(-c4ccccc4)nc(-c4ccccc4)n3)cc21` registered a photoluminescence quantum yield (in O=P(c1ccccc1)(c1ccccc1)c1ccccc1Oc1ccccc1P(=O)(c1ccccc1)c1ccccc1) of 0.55.

`CCCCn1c(-c2ccc(-c3nnc(-c4ccc(-c5nc6ccccc6n5CCCC)cc4)o3)cc2)nc2ccccc21` yielded a photoluminescence quantum yield (in ClCCl) of 0.63. With `CCN1/C(=C\c2c(-c3ccc(N(C)C)cc3)c(=O)c2=O)C=Cc2ccccc21`, the photoluminescence quantum yield reads like this: (in C1CCCCC1) 0.0276; (in Cc1ccccc1) 0.0226; (in ClCCl) 0.001.
